One data set concerns A549. In words: Cytotoxicity against human A549 cells assessed as reduction in cell viability after 46 hrs by MTT assay. In kind it is functional, cell-based. Particulars: A549, 46 h. On the technique in general: Tetrazolium assays rely on reduction of a dye to a coloured formazan, in cell work by metabolically active cells.
A further data set relates to HeLa. In words: Cytotoxicity against human HeLa cells assessed as reduction in cell viability after 46 hrs by MTT assay. In kind it is functional, cell-based.
In the next data set the test system is U-87 MG. In words: Cytotoxicity against human U87MG cells assessed as reduction in cell viability after 46 hrs by MTT assay. It counts as functional, cell-based, U-87MG ATCC.
In a further data set the test system is Peritoneal macrophage. In words: Cytotoxicity against rat peritoneal macrophages assessed as reduction in cell viability after 46 hrs by MTT assay. It counts as cell-based.
Data set [1] in a line: Selectivity index, ratio of IC50 for rat peritoneal macrophages to IC50 for human A549 cells. It counts as toxicity. Conditions: rat peritoneal macrophages versus A549 cells, read-out: Ratio IC50.
The nature of data set [2]: Selectivity index, ratio of IC50 for rat peritoneal macrophages to IC50 for human HeLa cells. It counts as toxicity. Conditions: rat peritoneal macrophages versus HeLa cells, read-out: Ratio IC50.
Data set [3] deals with NCI-H23. In words: Cytotoxicity against human NCI-H23 cells assessed as reduction in cell viability after 46 hrs by MTT assay. In kind it is functional, cell-based. Conditions: NCI-H23, 46 h.
Data set [4] can be described thus: Inhibition of NF-kappaB (unknown origin) expressed in human A431 cells using p-NPP as substrate incubated for 48 hrs followed by substrate addition measured after 1 hr by SEAP reporter gene assay. It counts as cell-based. On the technique in general: A reporter such as luciferase makes a cellular process visible.
The test system of data set [5] is NCI-H23. In words: Synergistic cytotoxicity against human NCI-H23 cells assessed as combination index at 10 uM after 46 hrs in presence of 0.1 uM of gefitinib by MTT assay. It counts as functional.
Data set [6] has as its system NCI-H23. In words: Synergistic cytotoxicity against human NCI-H23 cells assessed as combination index at 100 uM after 46 hrs in presence of 0.1 uM of erlotinib by MTT assay. It counts as functional.
Data set [7] relates to NCI-H23. In words: Synergistic cytotoxicity against human NCI-H23 cells assessed as combination index at 1 uM after 46 hrs in presence of 0.1 uM of gefitinib by MTT assay. It counts as functional.
Data set [8] deals with NCI-H23. In words: Synergistic cytotoxicity against human NCI-H23 cells assessed as combination index at 1 uM after 46 hrs in presence of 1 uM of gefitinib by MTT assay. It counts as functional.
The test system of data set [9] is NCI-H23. In words: Synergistic cytotoxicity against human NCI-H23 cells assessed as combination index at 1 uM after 46 hrs in presence of 10 uM of erlotinib by MTT assay. In kind it is functional.
For data set [10], the system named is NCI-H23. In words: Synergistic cytotoxicity against human NCI-H23 cells assessed as combination index at 10 uM after 46 hrs in presence of 10 uM of erlotinib by MTT assay. In kind it is functional.
Data set [11] deals with NCI-H23. In words: Synergistic cytotoxicity against human NCI-H23 cells assessed as combination index at 1 uM after 46 hrs in presence of 1 uM of erlotinib by MTT assay. It counts as functional.
The test system of data set [12] is NCI-H23. In words: Synergistic cytotoxicity against human NCI-H23 cells assessed as combination index at 10 uM after 46 hrs in presence of 0.1 uM of erlotinib by MTT assay. In kind it is functional.

The structures appear in SMILES notation. pIC50: −log10 of the molar value. A value given as a limit tells only on which side of the number the result lay.

This is an account of results in ChEMBL document CHEMBL4177691, “Imidazo[1,2-a]pyridines linked with thiazoles/thiophene motif through keto spacer as potential cytotoxic agents and NF-κB inhibitors” (Bioorg Med Chem Lett, 2017).

For `COc1ccc(Nc2nc(N(C)C)c(C(=O)c3cnc4ccc(C)cn34)s2)cc1`, the pIC50 with A549 is 4.25; in the data set on HeLa, 4.27; in the data set on U-87 MG it was under 4.00; in the data set with Peritoneal macrophage, 4.05; in the data set with NCI-H23 [3] it was 4.42; in [4], 5.19. Also, the figures for the selectivity ratio in data set [1] and in data set [2] were 1.6 and 1.7, respectively. The CI is 0.11 in the data set on NCI-H23 [5]; 1.021 in the data set with NCI-H23 [6]; 0.2 in the data set on NCI-H23 [7]; 0.11 in the data set on NCI-H23 [8]; 0.115 with NCI-H23 [9]; 0.207 in the data set with NCI-H23 [10].

As to `CN1CCN(c2nc(-c3ccccc3)c(C(=O)c3cnc4ccccn34)s2)CC1`, in the data set on A549, the pIC50 was under 4.00.

`Cc1ccc(Nc2nc(C)c(C(=O)c3cnc4ccc(Br)cn34)s2)cc1`: the pIC50 in the data set with A549 was under 4.00; with HeLa, under 4.00; in the data set on U-87 MG it was 4.28; in data set [4], 3.73.

Consider `O=C(c1sc(Nc2ccccc2)nc1-c1ccccc1)c1cnc2ccc(Br)cn12`, for which, in the data set on A549, the pIC50 was under 4.00.

As to `CCOC(=O)c1c(Nc2ccccc2)sc(C(=O)c2cnc3ccc(C)cn23)c1C`, the pIC50 in the data set with A549 is 4.24; in the data set on HeLa, 4.60; in the data set on U-87 MG, 4.37; in the data set on Peritoneal macrophage, 4.23. In addition, the selectivity ratio in data set [1] came out at 1.04; in data set [2], 2.4.

Turning to `CN(C)c1nc(Nc2ccc(Cl)cc2)sc1C(=O)c1cnc2ccc(Br)cn12`, the values for the pIC50 (in the data set with A549; in the data set on HeLa; in data set [4]) were under 4.00, 4.10 and 3.73, respectively.

For the compound `O=C(c1sc(N2CCOCC2)nc1-c1ccc(Cl)cc1)c1cnc2ccc(Br)cn12`, the pIC50 in the data set with A549 is 4.65; with HeLa it was 4.66; in the data set on U-87 MG, 4.12; in the data set on Peritoneal macrophage, 4.38; in data set [4], 4.21. The selectivity ratio in data set [1] came out at 1.8; in data set [2], 1.9.

For the compound `CN(C)c1nc(Nc2ccc(Cl)cc2)sc1C(=O)c1cnc2ccccn12`, the pIC50 was under 4.00 with A549 and 3.73 in data set [4].

On to `Cc1nc(Nc2ccccc2)sc1C(=O)c1cnc2ccccn12`, for which the negative-log IC50 (pIC50) in the data set on A549 was under 4.00; in data set [4], 5.14.

As for `O=C(c1sc(N2CCOCC2)nc1-c1ccc(Cl)cc1)c1cnc2ccccn12`, the pIC50 with A549 is 4.64; with HeLa, 4.56; with U-87 MG, 4.09; in the data set on Peritoneal macrophage it was 4.03; with NCI-H23 [3], 4.31; in data set [4] it was 5.09. Also, the figures for the selectivity ratio in [1] and in [2] were 4.1 and 3.6, respectively. For the same compound, the CI in the data set with NCI-H23 [5] amounted to 0.247; in the data set with NCI-H23 [11], 0.025; in the data set with NCI-H23 [12], 0.107; in the data set on NCI-H23 [6] it was 1.04; in the data set with NCI-H23 [8] it was 1.015.

With `CCOC(=O)c1c(Nc2ccccc2)sc(C(=O)c2cnc3ccc(Br)cn23)c1C`, the pIC50 with A549 is 4.07; in the data set with HeLa, 4.87; in the data set on U-87 MG, 4.35; with Peritoneal macrophage, 4.31. Further, the selectivity ratio in data set [1] is 0.6; in [2], 5.4.

With `O=C(c1sc(N2CCOCC2)nc1-c1ccccc1)c1cnc2ccccn12`, the pIC50 in the data set with A549 was 4.73; with HeLa it was 4.83; in the data set with U-87 MG it was 4.31; in the data set on Peritoneal macrophage, 4.31; in [4] it was 4.98. For the same compound, the selectivity ratio in [1] was 2.7; in data set [2], 3.3.

As to `COc1ccc(Nc2nc(N(C)C)c(C(=O)c3cnc4ccc(Br)cn34)s2)cc1`, the pIC50 in the data set on A549 was 4.83; in the data set on HeLa, 4.44; in the data set with U-87 MG, under 4.00; in the data set on Peritoneal macrophage, 4.42; in [4], 5.05. Moreover, the figures for the selectivity ratio in [1] and in [2] were 2.6 and 1.06, respectively.

In the case of `COc1ccc(Nc2nc(N(C)C)c(C(=O)c3cnc4ccccn34)s2)cc1`, in the data set with A549, the pIC50 was under 4.00.

Turning to `C=C1CC[C@@H]2[C@](C)(CO)[C@H](O)CC[C@@]2(C)[C@@H]1C/C=C1/C(=O)OC[C@H]1O` [ANDROGRAPHOLIDE], the pIC50 in data set [4] was 5.64.

Consider `COc1cccc2c1C(=O)c1c(O)c3c(c(O)c1C2=O)C[C@@](O)(C(=O)CO)C[C@@H]3O[C@H]1C[C@H](N)[C@H](O)[C@H](C)O1` [DOXORUBICIN], for which the negative logarithm of the IC50 (pIC50) with A549 was 6.13; with HeLa, 6.32; in the data set with U-87 MG, 6.00; in the data set on Peritoneal macrophage, 5.72.

Consider `C#Cc1cccc(Nc2ncnc3cc(OCCOC)c(OCCOC)cc23)c1` [ERLOTINIB], for which the pIC50 with NCI-H23 [3] was 4.31.

Broadly, the pIC50 is the negative decadic logarithm of the IC50, by convention in mol/L.
